Measurements from ChEMBL document CHEMBL3046725, “Synthesis and preliminary antibacterial evaluation of hydroxamic acid and N-formyl hydroxylamine derivatives bearing oxazole ring” (2013).
Values after ≈ are worked out from the molar mass of the structure shown. One block for each molecule: values may come before it.

Experiments:
Format in all cases: functional
[1] = system: Pseudomonas aeruginosa; assay: Antibacterial activity against Pseudomonas aeruginosa ATCC 27853 after 24 hr by broth microdilution method; settings: ATCC 27853, 24 h
[2] = system: Escherichia coli; assay: Antibacterial activity against Escherichia coli ATCC 25922 after 24 hr by broth microdilution method; settings: ATCC 25922, 24 h
[3] = system: Staphylococcus aureus; assay: Antibacterial activity against Staphylococcus aureus ATCC 25923 after 24 hr by broth microdilution method; settings: ATCC 25923, 24 h
[4] = system: Streptococcus pneumoniae; assay: Antibacterial activity against Streptococcus pneumoniae NCTC 7466 after 24 hr by broth microdilution method; settings: NCTC 7466, 24 h

SMILES: CCCC[C@H](CC(=O)NO)C(=O)N[C@H](c1nc(C(=O)Nc2ccc(C)cc2)co1)C(C)C
MIC [1]: 100 µg/mL (≈ 225 µM) | MIC [2]: 25 µg/mL (≈ 56.2 µM) | MIC [3]: 50 µg/mL (≈ 112 µM) | MIC [4]: 200 µg/mL (≈ 450 µM)

SMILES: CCCC[C@H](CC(=O)NO)C(=O)N[C@H](c1nc(C(=O)Nc2ccc(F)cc2)co1)C(C)C
MIC [1]: 100 µg/mL (≈ 223 µM) | MIC [2]: 100 µg/mL (≈ 223 µM) | MIC [3]: 100 µg/mL (≈ 223 µM) | MIC [4]: > 200 µg/mL

SMILES: CCCC[C@H](CC(=O)NO)C(=O)N[C@H](c1nc(C(=O)Nc2ccc(F)cn2)co1)C(C)C
MIC [1]: 100 µg/mL (≈ 222 µM) | MIC [2]: 50 µg/mL (≈ 111 µM) | MIC [3]: 100 µg/mL (≈ 222 µM) | MIC [4]: > 200 µg/mL

SMILES: CCCC[C@H](CN(O)C=O)C(=O)N[C@H](c1nc(C(=O)Nc2ccc(C)cc2)co1)C(C)C
MIC [1]: > 200 µg/mL | MIC [2]: > 200 µg/mL | MIC [3]: > 200 µg/mL | MIC [4]: > 200 µg/mL

SMILES: CCCC[C@H](CN(O)C=O)C(=O)N[C@H](c1nc(C(=O)Nc2ccc(F)cc2)co1)C(C)C
MIC [1]: > 200 µg/mL | MIC [2]: > 200 µg/mL | MIC [3]: > 200 µg/mL | MIC [4]: > 200 µg/mL

SMILES: CCCC[C@H](CN(O)C=O)C(=O)N[C@H](c1nc(C(=O)Nc2ccc3c(c2)OCO3)co1)C(C)C
MIC [1]: > 200 µg/mL | MIC [2]: > 200 µg/mL | MIC [3]: > 200 µg/mL | MIC [4]: > 200 µg/mL

SMILES: Cl.O=C(O)c1cn(C2CC2)c2cc(N3CCNCC3)c(F)cc2c1=O [CIPROFLOXACIN HYDROCHLORIDE]
MIC [4]: 6.25 µg/mL

The remaining lines, values ahead:

MIC [1]: 100 µg/mL (≈ 244 µM) | MIC [2]: 12.5 µg/mL (≈ 30.4 µM) | MIC [3]: 25 µg/mL (≈ 60.9 µM) | MIC [4]: 50 µg/mL (≈ 122 µM)
SMILES: CCCC[C@H](CN(O)C=O)C(=O)N[C@H](c1nc(C(=O)N(CC)CC)co1)C(C)C

MIC [1]: 100 µg/mL (≈ 237 µM) | MIC [2]: 25 µg/mL (≈ 59.2 µM) | MIC [3]: 50 µg/mL (≈ 118 µM) | MIC [4]: > 200 µg/mL
SMILES: CCCC[C@H](CN(O)C=O)C(=O)N[C@H](c1nc(C(=O)N2CCCCC2)co1)C(C)C

MIC [1]: > 200 µg/mL | MIC [2]: > 200 µg/mL | MIC [3]: > 200 µg/mL | MIC [4]: > 200 µg/mL
SMILES: CCCC[C@H](CN(O)C=O)C(=O)N[C@H](c1nc(C(=O)Nc2ccc(F)cn2)co1)C(C)C

MIC [1]: > 200 µg/mL | MIC [2]: > 200 µg/mL | MIC [3]: > 200 µg/mL | MIC [4]: > 200 µg/mL
SMILES: CCCC[C@H](CN(O)C=O)C(=O)N[C@H](c1nc(C(=O)Nc2ccc(F)c(F)c2)co1)C(C)C
